Results: EP0268663B1, “PHOSPHOPEPTIDES” (THE UNIVERSITY OF MELBOURNE, priority 1986, dated 1995)
Square brackets hold non-standard residues; d marks the D form. Peptide text beside a SMILES is read from it. pS = N[C@@H](COP(=O)(O)O)C(=O)O

Tests used:
[1] = Sequestration of calcium phosphate by the peptide; assay type: physicochemical; settings: 10mg/ml solution at pH 7.0; metastable supersaturated solution
Experimental: The active peptides can sequester calcium phosphate and other salts of divalent metal ions. One mole of T1 binds 16 mole of CaHPO₄ such that a 10mg/ml solution of T1 at pH 7.0 can solubilize 60mM CaHPO₄ producing a metastable supersaturated solution with respect to calcium phosphate species. With chloride as the counter ion one mole of T1 binds only 5 mole of Ca⁺⁺ binding only to serine phosphates. One mole of T1 with about 16 mole of CaHPO₄ bound (M.W. 4883) will henceforth be referred to as calcium phosphate T1.

Intra-Oral Caries Test = assay type: in vivo; settings: plaque exposed twice a day to the peptide T1 solution (1.8% w/v calcium phosphate T1)
Experimental: The anticariogenicity of phosphopeptide T1 was determined using a modification of the intra-oral caries test of Koulourides and Ostrom (Caries Res. 10:442-482, 1976). Enamel slabs were inset in a removable intra-oral appliance to simulate an approximal area. This was done on both sides of the removable appliance (left and right). The appliance was worn to allow plaque accumulation in the simulated approximal areas. Eight times a day the appliance was removed and placed in a solution at 37°C. The solution was 2% w/v sucrose, 2% w/v glucose, 140 mM KCl, 20mM NaCl at pH 7.0. Twice a day the right side enamel slabs received exposure to a solution containing 1.8% w/v calcium phosphate T1 in 140 mM KCl, 20 mM NaCl at pH 7.0, while the left side received only the salt solution. At the completion of the experiment the enamel slabs were removed, sectioned and subjected to microradiography and microhardnass testing. […] The results were confirmed by microhardness analysis. Plaque was also taken from both sides of the appliance and analysed for calcium phosphate, serine phosphate and peptide T1 using a competitive, quantitative, enzyme-linked immunosorbent assay (ELISA) utilising monoclonal antipeptide T1 antibodies.

CC[C@H](C)[C@H](NC(=O)[C@H](COP(=O)(O)O)NC(=O)[C@H](CCC(=O)O)NC(=O)[C@H](C)NC(=O)[C@H](CCC(=O)O)NC(=O)[C@H](CCSC)NC(=O)[C@@H](N)CCC(=O)O)C(=O)N[C@@H](COP(=O)(O)O)C(=O)N[C@@H](COP(=O)(O)O)C(=O)N[C@@H](COP(=O)(O)O)C(=O)N[C@@H](CCC(=O)O)C(=O)N[C@@H](CCC(=O)O)C(=O)N[C@H](C(=O)N[C@H](C(=O)N1CCC[C@H]1C(=O)N[C@@H](CC(N)=O)C(=O)N[C@@H](COP(=O)(O)O)C(=O)N[C@H](C(=O)N[C@@H](CCC(=O)O)C(=O)N[C@@H](CCC(N)=O)C(=O)N[C@@H](CCCCN)C(=O)O)C(C)C)C(C)C)[C@@H](C)CC [Phosphopeptide T1] (H-EMEAE[pS]I[pS][pS][pS]EEIVPN[pS]VEQK-OH)
CaHPO₄ solubilized [1]: 60 mM | level of peptide in plaque (ELISA) (Intra-Oral Caries Test): at least 0.4 % w/wet wt of plaque
